*1 amine or outer side, *2 acyl side, *3 side chain or, on linkers, in order; H or OH if unused. Where a SMILES comes first, the peptide text is derived from it. [ ]: non-standard residue; d: D form. X7 = N=C(NCCC[C@H](N[*:1])C(=O)[*:2])N[C@H]1O[C@H](CO)[C@@H](O)[C@H](O)[C@@H]1O
Assay: Cytotoxicity against C57BL/6 mouse Pre-Osteoblast cells assessed as cell death upto 5 uM incubated for 4 days by CCK-8 assay
Type: toxicity, cell-based
Conditions: 96 h, time 4 day

| SMILES | Activity |
| --- | --- |
| CC[C@H](C)[C@H](NC(=O)[C@H](CCC(=O)O)NC(=O)[C@H](CO)NC(=O)[C@@H](NC(=O)[C@H](CO)NC(C)=O)C(C)C)C(=O)N[C@@H](CCC(N)=O)C(=O)N[C@@H](CC(C)C)C(=O)N[C@@H](CCSC)C(=O)N[C@@H](Cc1cnc[nH]1)C(=O)N[C@@H](CC(N)=O)C(=O)N[C@@H](CC(C)C)C(=O)NCC(=O)N[C@@H](CCCCN)C(=O)N[C@@H](Cc1cnc[nH]1)C(=O)N[C@@H](CC(C)C)C(=O)N[C@@H](CC(N)=O)C(=O)N[C@@H](CO)C(=O)N[C@@H](CCSC)C(=O)N[C@@H](CCC(=O)O)C(=O)N[C@@H](CCCNC(=N)N[C@H]1O[C@H](CO)[C@@H](O)[C@H](O)[C@@H]1O)C(=O)N[C@H](C(=O)N[C@@H](CCC(=O)O)C(=O)N[C@@H](Cc1c[nH]c2ccccc12)C(=O)N[C@@H](CC(C)C)C(=O)N[C@@H](CCCNC(=N)N)C(=O)N[C@@H](CCCCN)C(=O)N[C@@H](CCCCN)C(=O)N[C@@H](CC(C)C)C(=O)N[C@@H](CCC(N)=O)C(=O)N[C@@H](CC(=O)O)C(=O)N[C@H](C(=O)N[C@@H](Cc1cnc[nH]1)C(=O)N[C@@H](CC(N)=O)C(=O)N[C@@H](Cc1ccccc1)C(N)=O)C(C)C)C(C)C | Non-Toxic |
| CC[C@H](C)[C@H](NC(=O)[C@H](CCC(=O)O)NC(=O)[C@H](CO)NC(=O)[C@@H](NC(=O)[C@H](CO)NC(C)=O)C(C)C)C(=O)N[C@@H](CCC(N)=O)C(=O)N[C@@H](CC(C)C)C(=O)N[C@@H](CCSC)C(=O)N[C@@H](Cc1cnc[nH]1)C(=O)N[C@@H](CC(N)=O)C(=O)N[C@@H](CC(C)C)C(=O)NCC(=O)N[C@@H](CCCCN)C(=O)N[C@@H](Cc1cnc[nH]1)C(=O)N[C@@H](CC(C)C)C(=O)N[C@@H](CC(N)=O)C(=O)N[C@@H](CO)C(=O)N[C@@H](CCSC)C(=O)N[C@@H](CCC(=O)O)C(=O)N[C@@H](CCCNC(=N)N[C@H]1O[C@H](CO)[C@@H](O)[C@H](O)[C@@H]1O)C(=O)N[C@H](C(=O)N[C@@H](CCC(=O)O)C(=O)N[C@@H](Cc1c[nH]c2ccccc12)C(=O)N[C@@H](CC(C)C)C(=O)N[C@@H](CCCNC(=N)N[C@H]1O[C@H](CO)[C@@H](O)[C@H](O)[C@@H]1O)C(=O)N[C@@H](CCCCN)C(=O)N[C@@H](CCCCN)C(=O)N[C@@H](CC(C)C)C(=O)N[C@@H](CCC(N)=O)C(=O)N[C@@H](CC(=O)O)C(=O)N[C@H](C(=O)N[C@@H](Cc1cnc[nH]1)C(=O)N[C@@H](CC(N)=O)C(=O)N[C@@H](Cc1ccccc1)C(N)=O)C(C)C)C(C)C (Ac-SVSEIQLMHNLGKHLNSME[X7]VEWL[X7]KKLQDVHNF-NH2) | Non-Toxic |
| CC[C@H](C)[C@H](NC(=O)[C@H](CCC(=O)O)NC(=O)[C@H](CO)NC(=O)[C@@H](NC(=O)[C@H](CO)NC(C)=O)C(C)C)C(=O)N[C@@H](CCC(N)=O)C(=O)N[C@@H](CC(C)C)C(=O)N[C@@H](CCSC)C(=O)N[C@@H](Cc1cnc[nH]1)C(=O)N[C@@H](CC(N)=O)C(=O)N[C@@H](CC(C)C)C(=O)NCC(=O)N[C@@H](CCCCN)C(=O)N[C@@H](Cc1cnc[nH]1)C(=O)N[C@@H](CC(C)C)C(=O)N[C@@H](CC(N)=O)C(=O)N[C@@H](CO)C(=O)N[C@@H](CCSC)C(=O)N[C@@H](CCC(=O)O)C(=O)N[C@@H](CCCNC(=N)N[C@@H]1O[C@H](CO)[C@@H](O[C@@H]2O[C@H](CO)[C@H](O)[C@H](O)[C@H]2O)[C@H](O)[C@H]1O)C(=O)N[C@H](C(=O)N[C@@H](CCC(=O)O)C(=O)N[C@@H](Cc1c[nH]c2ccccc12)C(=O)N[C@@H](CC(C)C)C(=O)N[C@@H](CCCNC(=N)N[C@@H]1O[C@H](CO)[C@@H](O[C@@H]2O[C@H](CO)[C@H](O)[C@H](O)[C@H]2O)[C@H](O)[C@H]1O)C(=O)N[C@@H](CCCCN)C(=O)N[C@@H](CCCCN)C(=O)N[C@@H](CC(C)C)C(=O)N[C@@H](CCC(N)=O)C(=O)N[C@@H](CC(=O)O)C(=O)N[C@H](C(=O)N[C@@H](Cc1cnc[nH]1)C(=O)N[C@@H](CC(N)=O)C(=O)N[C@@H](Cc1ccccc1)C(N)=O)C(C)C)C(C)C | Non-Toxic |
| CC[C@H](C)[C@H](NC(=O)[C@H](CCC(=O)O)NC(=O)[C@H](CO)NC(=O)[C@@H](NC(=O)[C@H](CO)NC(C)=O)C(C)C)C(=O)N[C@@H](CCC(N)=O)C(=O)N[C@@H](CC(C)C)C(=O)N[C@@H](CCSC)C(=O)N[C@@H](Cc1cnc[nH]1)C(=O)N[C@@H](CC(N)=O)C(=O)N[C@@H](CC(C)C)C(=O)NCC(=O)N[C@@H](CCCCN)C(=O)N[C@@H](Cc1cnc[nH]1)C(=O)N[C@@H](CC(C)C)C(=O)N[C@@H](CC(N)=O)C(=O)N[C@@H](CO)C(=O)N[C@@H](CCSC)C(=O)N[C@@H](CCC(=O)O)C(=O)N[C@@H](CCCNC(=N)N)C(=O)N[C@H](C(=O)N[C@@H](CCC(=O)O)C(=O)N[C@@H](Cc1c[nH]c2ccccc12)C(=O)N[C@@H](CC(C)C)C(=O)N[C@@H](CCCNC(=N)N[C@@H]1O[C@H](CO)[C@@H](O)[C@H]1O)C(=O)N[C@@H](CCCCN)C(=O)N[C@@H](CCCCN)C(=O)N[C@@H](CC(C)C)C(=O)N[C@@H](CCC(N)=O)C(=O)N[C@@H](CC(=O)O)C(=O)N[C@H](C(=O)N[C@@H](Cc1cnc[nH]1)C(=O)N[C@@H](CC(N)=O)C(=O)N[C@@H](Cc1ccccc1)C(N)=O)C(C)C)C(C)C | Non-Toxic |
| CC[C@H](C)[C@H](NC(=O)[C@H](CCC(=O)O)NC(=O)[C@H](CO)NC(=O)[C@@H](NC(=O)[C@H](CO)NC(C)=O)C(C)C)C(=O)N[C@@H](CCC(N)=O)C(=O)N[C@@H](CC(C)C)C(=O)N[C@@H](CCSC)C(=O)N[C@@H](Cc1cnc[nH]1)C(=O)N[C@@H](CC(N)=O)C(=O)N[C@@H](CC(C)C)C(=O)NCC(=O)N[C@@H](CCCCN)C(=O)N[C@@H](Cc1cnc[nH]1)C(=O)N[C@@H](CC(C)C)C(=O)N[C@@H](CC(N)=O)C(=O)N[C@@H](CO)C(=O)N[C@@H](CCSC)C(=O)N[C@@H](CCC(=O)O)C(=O)N[C@@H](CCCNC(=N)N)C(=O)N[C@H](C(=O)N[C@@H](CCC(=O)O)C(=O)N[C@@H](Cc1c[nH]c2ccccc12)C(=O)N[C@@H](CC(C)C)C(=O)N[C@@H](CCCNC(=N)N[C@@H]1O[C@H](CO)[C@H](O)[C@H](O)[C@H]1O)C(=O)N[C@@H](CCCCN)C(=O)N[C@@H](CCCCN)C(=O)N[C@@H](CC(C)C)C(=O)N[C@@H](CCC(N)=O)C(=O)N[C@@H](CC(=O)O)C(=O)N[C@H](C(=O)N[C@@H](Cc1cnc[nH]1)C(=O)N[C@@H](CC(N)=O)C(=O)N[C@@H](Cc1ccccc1)C(N)=O)C(C)C)C(C)C | Non-Toxic |
| CC[C@H](C)[C@H](NC(=O)[C@H](CCC(=O)O)NC(=O)[C@H](CO)NC(=O)[C@@H](NC(=O)[C@H](CO)NC(C)=O)C(C)C)C(=O)N[C@@H](CCC(N)=O)C(=O)N[C@@H](CC(C)C)C(=O)N[C@@H](CCSC)C(=O)N[C@@H](Cc1cnc[nH]1)C(=O)N[C@@H](CC(N)=O)C(=O)N[C@@H](CC(C)C)C(=O)NCC(=O)N[C@@H](CCCCN)C(=O)N[C@@H](Cc1cnc[nH]1)C(=O)N[C@@H](CC(C)C)C(=O)N[C@@H](CC(N)=O)C(=O)N[C@@H](CO)C(=O)N[C@@H](CCSC)C(=O)N[C@@H](CCC(=O)O)C(=O)N[C@@H](CCCNC(=N)N[C@@H]1O[C@H](CO)[C@@H](O)[C@H](O)[C@H]1NC(C)=O)C(=O)N[C@H](C(=O)N[C@@H](CCC(=O)O)C(=O)N[C@@H](Cc1c[nH]c2ccccc12)C(=O)N[C@@H](CC(C)C)C(=O)N[C@@H](CCCNC(=N)N)C(=O)N[C@@H](CCCCN)C(=O)N[C@@H](CCCCN)C(=O)N[C@@H](CC(C)C)C(=O)N[C@@H](CCC(N)=O)C(=O)N[C@@H](CC(=O)O)C(=O)N[C@H](C(=O)N[C@@H](Cc1cnc[nH]1)C(=O)N[C@@H](CC(N)=O)C(=O)N[C@@H](Cc1ccccc1)C(N)=O)C(C)C)C(C)C | Non-Toxic |
| CC[C@H](C)[C@H](NC(=O)[C@H](CCC(=O)O)NC(=O)[C@H](CO)NC(=O)[C@@H](NC(=O)[C@H](CO)NC(C)=O)C(C)C)C(=O)N[C@@H](CCC(N)=O)C(=O)N[C@@H](CC(C)C)C(=O)N[C@@H](CCSC)C(=O)N[C@@H](Cc1cnc[nH]1)C(=O)N[C@@H](CC(N)=O)C(=O)N[C@@H](CC(C)C)C(=O)NCC(=O)N[C@@H](CCCCN)C(=O)N[C@@H](Cc1cnc[nH]1)C(=O)N[C@@H](CC(C)C)C(=O)N[C@@H](CC(N)=O)C(=O)N[C@@H](CO)C(=O)N[C@@H](CCSC)C(=O)N[C@@H](CCC(=O)O)C(=O)N[C@@H](CCCNC(=N)N)C(=O)N[C@H](C(=O)N[C@@H](CCC(=O)O)C(=O)N[C@@H](Cc1c[nH]c2ccccc12)C(=O)N[C@@H](CC(C)C)C(=O)N[C@@H](CCCNC(=N)N[C@@H]1O[C@H](CO)[C@@H](O)[C@H](O)[C@H]1O)C(=O)N[C@@H](CCCCN)C(=O)N[C@@H](CCCCN)C(=O)N[C@@H](CC(C)C)C(=O)N[C@@H](CCC(N)=O)C(=O)N[C@@H](CC(=O)O)C(=O)N[C@H](C(=O)N[C@@H](Cc1cnc[nH]1)C(=O)N[C@@H](CC(N)=O)C(=O)N[C@@H](Cc1ccccc1)C(N)=O)C(C)C)C(C)C | Non-Toxic |
| CC[C@H](C)[C@H](NC(=O)[C@H](CCC(=O)O)NC(=O)[C@H](CO)NC(=O)[C@@H](NC(=O)[C@H](CO)NC(C)=O)C(C)C)C(=O)N[C@@H](CCC(N)=O)C(=O)N[C@@H](CC(C)C)C(=O)N[C@@H](CCSC)C(=O)N[C@@H](Cc1cnc[nH]1)C(=O)N[C@@H](CC(N)=O)C(=O)N[C@@H](CC(C)C)C(=O)NCC(=O)N[C@@H](CCCCN)C(=O)N[C@@H](Cc1cnc[nH]1)C(=O)N[C@@H](CC(C)C)C(=O)N[C@@H](CC(N)=O)C(=O)N[C@@H](CO)C(=O)N[C@@H](CCSC)C(=O)N[C@@H](CCC(=O)O)C(=O)N[C@@H](CCCNC(=N)N[C@@H]1O[C@H](CO)[C@@H](O[C@@H]2O[C@H](CO)[C@H](O)[C@H](O)[C@H]2O)[C@H](O)[C@H]1O)C(=O)N[C@H](C(=O)N[C@@H](CCC(=O)O)C(=O)N[C@@H](Cc1c[nH]c2ccccc12)C(=O)N[C@@H](CC(C)C)C(=O)N[C@@H](CCCNC(=N)N)C(=O)N[C@@H](CCCCN)C(=O)N[C@@H](CCCCN)C(=O)N[C@@H](CC(C)C)C(=O)N[C@@H](CCC(N)=O)C(=O)N[C@@H](CC(=O)O)C(=O)N[C@H](C(=O)N[C@@H](Cc1cnc[nH]1)C(=O)N[C@@H](CC(N)=O)C(=O)N[C@@H](Cc1ccccc1)C(N)=O)C(C)C)C(C)C | Non-Toxic |

Reference: ChEMBL document CHEMBL5537170, “Design, Synthesis, and Anti-Osteoporotic Characterization of Arginine N-Glycosylated Teriparatide Analogs via the Silver-catalyzed Solid-Phase Glycosylation Strategy” (J Med Chem, 2024)
